The target in one assay is T1, Aurora A (Homo sapiens, UniProt O14965).
T1 construct: gift from Professor Jia Li, Shanghai Institute of Materia Medica/Chinese Academy of Sciences
T1 sequence (O14965 1-403): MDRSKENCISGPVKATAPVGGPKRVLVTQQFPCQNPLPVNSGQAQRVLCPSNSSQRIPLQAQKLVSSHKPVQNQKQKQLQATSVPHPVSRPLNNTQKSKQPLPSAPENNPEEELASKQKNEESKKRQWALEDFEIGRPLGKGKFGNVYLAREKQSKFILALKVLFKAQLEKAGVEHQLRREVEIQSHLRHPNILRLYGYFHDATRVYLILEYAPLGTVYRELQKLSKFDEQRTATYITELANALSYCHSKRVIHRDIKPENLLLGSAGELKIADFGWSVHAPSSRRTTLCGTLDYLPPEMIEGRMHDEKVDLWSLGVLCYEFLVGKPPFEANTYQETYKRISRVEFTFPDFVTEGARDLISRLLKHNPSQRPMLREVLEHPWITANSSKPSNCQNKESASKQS
As to the kind of experiment: HTRF KinEASE-STK kinase assay, Aurora A. In kind it is biochemical. From the text: (§1) The inhibition of TY-011 on activity of Aurora A, Aurora B and VEGFR2 was characterized by HTRF® KinEASE™-STK/TK kit according to the manufacturer’s instructions (Cisbio Assays, Codolet, France). Aurora A and Aurora B were gifts from Professor Jia Li, Shanghai Institute of Materia Medica/Chinese Academy of Sciences. VEGFR2 was purchased from Carna Biosciences (Kobe, Japan).
On the technique in general: In TR-FRET formats the signal depends on donor and acceptor labels being close together.

Another assay relates to MKN-45 cells. As to the kind of experiment: CCK-8 cell proliferation assay, MKN-45. The conditions noted are these: Homo sapiens; MKN-45, CCK-8, Fig. 3. The format is cell-based. The method, then:
(§2) During the logarithmic growth phase, each cell line was seeded in a 96-well tissue culture plate (Thermo Fisher Scientific, Waltham, MA, USA) at a predetermined density in complete medium, attached overnight and treated with compound for the indicated time. The medium was discarded and replaced with 10% CCK-8 (Dojindo, Kumamoto, Japan) in complete medium, then incubated the plates for another 2 h. The OD450 was measured with SpectraMax M5 (Molecular Devices, CA, USA). A background absorbance of ODblank was subtracted from all wells. The survival rate was determined with following formula: Survival rate (%) = ODcompound/ODDMSO × 100%. The IC50 values were calculated by concentration − response curve fitting using the four parameter method.
A general note: Tetrazolium assays rely on reduction of a dye to a coloured formazan, in cell work by metabolically active cells.

The subject of another assay is SGC-7901 cells. Nature of the assay: Annexin V/PI apoptosis analysis, SGC-7901. In kind it is cell-based, human. The conditions noted are these: 48 h (14.1% control). The method, then: (§3) Apoptosis was detected by FITC Annexin V Apoptosis Detection Kit I according to the manufacturer’s instructions (Dojindo, Kumamoto, Japan) to determine the phosphatidyl serine exposure. Apoptotic cells were quantified by a flow cytometer (Guava EasyCyte 6HT-2 L, Merck Millipore, Billerica, MA, USA) using the InCyte software. At least 10 000 cells were analyzed for each data point.

Assay [1] deals with 5 gastric cancer cell lines. As to the kind of experiment: CCK-8 cell proliferation assay, panel of 5 gastric cancer cell lines. In kind it is cell-based. The conditions noted are these: Homo sapiens; range over SNU-16, MKN-45, MGC-803, SGC-7901, AGS; read-out: IC50 values across 5 gastric cancer cell lines. The method, then: as §2
For a further assay, the target named is T2, Aurora B (Homo sapiens, UniProt Q96GD4).
T2 construct: gift from Professor Jia Li, Shanghai Institute of Materia Medica/Chinese Academy of Sciences
T2 sequence (Q96GD4 whole entry): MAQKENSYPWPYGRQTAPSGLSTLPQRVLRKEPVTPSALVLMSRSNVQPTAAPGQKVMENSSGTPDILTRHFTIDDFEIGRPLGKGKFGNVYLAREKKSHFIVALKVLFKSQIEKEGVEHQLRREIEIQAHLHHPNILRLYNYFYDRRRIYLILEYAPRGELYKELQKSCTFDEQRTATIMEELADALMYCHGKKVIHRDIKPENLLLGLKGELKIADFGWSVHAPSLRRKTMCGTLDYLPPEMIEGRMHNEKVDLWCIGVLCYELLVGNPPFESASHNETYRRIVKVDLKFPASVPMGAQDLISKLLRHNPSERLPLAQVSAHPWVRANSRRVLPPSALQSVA
As to the kind of experiment: HTRF KinEASE-STK kinase assay, Aurora B. The format is biochemical.
From the text: as §1

For the next assay, the system named is SNU-16 cells. As to the kind of experiment: CCK-8 cell proliferation assay, SNU-16. In kind it is cell-based. Particulars: Homo sapiens; SNU-16, CCK-8, Fig. 3. The method, then: as §2
The subject of a further assay is MGC-803 cells. As to the kind of experiment: Annexin V/PI apoptosis analysis, MGC-803. In kind it is cell-based, human. Particulars: 48 h (7.8% control). The method, then: as §3
The test system of assay [2] is p-Histone H3 (S10), substrate of Aurora B. As to the kind of experiment: Cellular Histone H3 phosphorylation (western blot, immunofluorescence) in MGC-803 cells. In kind it is cell-based, human. The method, then: The proteins of whole cell lysates were prepared in RIPA buffer containing protease and phosphatase inhibitors (Thermo Fisher Scientific, Waltham, MA, USA), and quantified by the bicinchoninic acid (BCA) method. Immunoblotting analysis of proteins in cell lysates was performed as previously described. Primary antibodies used were as follows: anti-Aurora A (#12100), anti-p-Aurora A (Thr288) (#3079), anti-Histone H3 (#4499), and anti-p-Histone H3 (Ser10) (#9701), and anti-cleaved caspase 3 (#9661) were purchased from Cell Signaling Technology (Danvers, MA, USA); anti-PARP-1 (#sc-8007) and anti-GAPDH (#sc-25778) were purchased from Santa Cruz (CA, USA).
Cells were cultured on glass slides coated with 0.05 mg/ml PDL (Sigma-aldrich, St. Louis, MO, USA) in the presence of TY-011 (0.8 μM) or equivalent amount of DMSO for 24 h. The cells were fixed in 4% paraformaldehyde at room temperature, then permeabilized with 0.15% Triton-X100 and blocked in 3% BSA in PBS. The primary antibodies were incubated with slides at 1:100 dilution in PBS containing 3% BSA in a wet chamber at 4 °C overnight. […] The images were captured with FCFM (fluorescence confocal microscope) (Olympus FV1000 IX81, Tokyo, Japan) under appropriate excitation and emission filters or phase-contrast microscope (Olympus IX73, Tokyo, Japan). […]

The structures appear in SMILES notation. Like-named read-outs stand apart in the source and are kept apart here.

A word on the IC50: it is the concentration that gives 50% inhibition. In the case of `CCc1cc2c(cn1)C(c1ccccc1Cl)=Nc1c(n[nH]c1C)N2` [TY-011, 9-(2-chloro-phenyl)-6-ephyl-1-methyl-2,4-dihydro-2,3,4,7,10-pentaaza-benzo[f]azulene], the IC50 at Aurora A (Table S1, read-out: IC50 Aurora A) is 100 nM; on Aurora A (mean ± SD of three independent experiments, read-out: Aurora A IC50), 102 ± 10.1 nM; with MKN-45 cells it was 130 ± 10 nM; in assay [1], 90 to 960 nM; on Aurora B (Table S1, read-out: IC50 Aurora B), 90 nM; at Aurora B (mean ± SD of three independent experiments, read-out: Aurora B IC50), 93.9 ± 33.7 nM. Moreover, the midpoint of inhibition with SNU-16 cells, the IC50, lay at 90 ± 20 nM. Moreover, the apoptotic cells was 17.2% in the assay on SGC-7901 cells (SGC-7901, 0.25 μM); 28.4% in the assay on SGC-7901 cells (SGC-7901, 0.5 μM); 54.3% in the assay on SGC-7901 cells (SGC-7901, 1 μM). The apoptosis with MGC-803 cells (MGC-803, 0.1 μM) was found to be 39.3%; with MGC-803 cells (MGC-803, 0.2 μM), 78.2%; with MGC-803 cells (MGC-803, 0.4 μM) it was 86.1%. Further, the “p-Histone H3 (S10), immunofluorescence” value in assay [2] (MGC-803, 0.8 μM, 24 h) is recorded as “decreased sharply”. Moreover, in assay [2] (MGC-803 synchronized with nocodazole (100 nM) 16 h, then various concentrations for 24 h), the “phosphorylation of Histone H3 (S10), western blot” value is recorded as “strongly inhibited”.
